Read-outs that look alike come from different tables or passages of the source.
Assays:
TLR9 [1] = target: T1, TLR9 (Mus musculus, UniProt Q9EQU3); experiment: TLR9 inhibition, TNF-α secretion (ELISA) in RAW 264.7; assay type: cell-based; details: for TLR9 TI value: therapeutic index, RAW 264.7
T1 construct: endogenous in cells; host or cells: RAW 264.7
T1 sequence (Q9EQU3 26-1032): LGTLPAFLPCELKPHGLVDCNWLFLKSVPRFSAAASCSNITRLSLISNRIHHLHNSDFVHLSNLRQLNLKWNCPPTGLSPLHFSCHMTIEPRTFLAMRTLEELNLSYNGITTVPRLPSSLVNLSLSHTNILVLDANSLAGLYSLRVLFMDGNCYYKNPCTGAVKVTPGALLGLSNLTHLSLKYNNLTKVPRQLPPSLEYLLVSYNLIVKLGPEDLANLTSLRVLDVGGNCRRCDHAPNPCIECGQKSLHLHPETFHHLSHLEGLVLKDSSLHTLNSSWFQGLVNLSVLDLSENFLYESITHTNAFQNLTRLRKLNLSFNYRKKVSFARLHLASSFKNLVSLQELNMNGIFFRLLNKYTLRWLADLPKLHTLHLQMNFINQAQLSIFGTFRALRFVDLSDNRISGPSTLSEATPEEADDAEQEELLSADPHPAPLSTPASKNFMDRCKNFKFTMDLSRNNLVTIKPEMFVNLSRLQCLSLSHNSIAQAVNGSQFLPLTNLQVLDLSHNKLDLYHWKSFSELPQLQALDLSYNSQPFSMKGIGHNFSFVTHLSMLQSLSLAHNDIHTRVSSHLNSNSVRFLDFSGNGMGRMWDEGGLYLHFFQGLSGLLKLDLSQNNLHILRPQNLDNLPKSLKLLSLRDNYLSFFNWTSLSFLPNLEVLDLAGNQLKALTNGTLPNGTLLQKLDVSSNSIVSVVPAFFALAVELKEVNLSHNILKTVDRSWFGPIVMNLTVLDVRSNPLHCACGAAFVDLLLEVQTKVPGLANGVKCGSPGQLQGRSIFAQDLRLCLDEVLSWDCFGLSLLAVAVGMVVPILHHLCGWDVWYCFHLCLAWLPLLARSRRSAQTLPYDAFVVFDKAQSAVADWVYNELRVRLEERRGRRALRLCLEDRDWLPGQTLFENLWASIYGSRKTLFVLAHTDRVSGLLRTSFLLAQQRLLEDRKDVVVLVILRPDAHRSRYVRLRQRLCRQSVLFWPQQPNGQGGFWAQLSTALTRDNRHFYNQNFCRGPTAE
Procedure: RAW 264.7 and differentiated THP-1 cells were seeded into 96-well plates at 2 × 10^4 cells per well, while Daudi cells were seeded at 5 × 10^4 cells per well. After stabilization for 30 min, cells were stimulated with specific TLR agonists for 4 or 24 h. Supernatants were diluted and transferred to precoated ELISA plates to measure TNF-α secretion using kits from Invitrogen. Optical absorbance was measured using a BioTek Synergy HTX multimode microplate reader, and data were interpolated using BioTek Gen5 software.
One-tailed paired Student’s t-tests were performed using Microsoft Excel (Microsoft). Semi-logarithmic conversions and nonregression curve analyses for calculating 50% lethal concentration (LC50) and 50% inhibitory concentration (IC50) values were conducted using GraphPad Prism 7.0 (GraphPad). The therapeutic index was calculated as […]. Animal experimental results are expressed as mean ± standard deviation and analyzed using SPSS v.20 (IBM SPSS Statistics). Homogeneity of variance was assessed using Levene’s test.
The cells were activated with agonistic ligands: […], TLR3 (poly I:C, 2 μg/ml, 24 h), TLR4 (LPS, 10 or 100 ng/ml, 4 h), TLR5 (FLA-ST, 500 ng/ml, 4 h), TLR7 (ORN06/LyoVec, 2 μg/ml, 24 h; and IMQ, 1 μg/ml, 4 h), TLR8 (TL8-506, 2 μg/ml, 24 h) and TLR9 (ODN2395, 1 μM, 4 h) at various concentrations in RAW 264.7 cells, human Daudi cells and THP-1 cells. Data are from at least three independent experiments (n = 3) and statistical differences between the induced case and other cases were analyzed and verified using a one-tailed Student’s t-test (*P < 0.05, **P < 0.01, ***P < 0.001).

TLR9 [2] = target: T1, TLR9; experiment: Real-time quantitative PCR in BMDCs stimulated with ODN2395; assay type: cell-based; details: primary BMDCs, 0.2 and 1 μM, ODN2395 1 μM
Procedure: Bone marrow cells from 8-week-old C57BL/6 mice (Jackson Laboratory) were cultured in RPMI 1640 with 20 ng/ml granulocyte-macrophage colony-stimulating factor (GM-CSF; Thermo Fisher Scientific) for 8 days. Bone marrow-derived dendritic cell (BMDC) purity was confirmed by fluorescence-activated cell sorting (FACS), showing 84% F4/80^− and CD11c^+ cells. […] Total mRNA was extracted using TRIzol reagent (Thermo Fisher Scientific) and reverse transcribed using the ReverTra Ace qPCR RT Kit (Toyobo). mRNA levels were determined using SYBR Green PCR Master Mix (Kapa Biosystems) and a CFX Connect RT-PCR System (Bio-Rad). Primers used were directed against IL-12p40, IFN-β, CD40 and GAPDH.
All experiments were independently conducted three times.

| SMILES | IC50 (TLR9 [1]) [nM] | TLR9 TI value (TLR9 [1]) | Production of IL-12p40, IFN-β and CD40 (mRNA) (TLR9 [2]) | IC50 (TLR9 [1]; RAW 264.7 cell line, read-out: TLR9 IC50 (mTNFα)) [nM] |
| --- | --- | --- | --- | --- |
| Cc1cc2c(N)c3c(nc2n1CCCN(C)C)CCCCCC3 [ETI41] | 160 | 419.88 | significantly inhibited | – |
| COc1ccc2c3c(N)c4c(nc3n(CCCN(C)C)c2c1)CCCC4 [ETI60] | – | 422.71 | – | 120 |
